The record followed here is patent US5382586A, “Aryl (or heteroaryl)piperazinylalkylazole derivatives, their preparation and their application as medicaments” (priority 1991, dated 1995).

For experiment [1], the system named is conditioned avoidance response in male Wistar rats. Kind of experiment: conditioned avoidance response test (inhibition of the conditioned avoidance response; anxiolytic/tranquillising activity). It counts as in vivo, rat (male Wistar). The settings on record: rat; for Activity % (inhibition of the conditioned avoidance response): D = 80 mg/kg, p.o., 45 min before test. As for the experimental part:
Male Wistar rats weighing 200 grammes which have been trained to jump over a barrier in an avoidance and escape cage (shuttle box) (Letica, reference LI 910 and LI 2700) within 30 seconds of their being introduced into the cage are used in this test.
The products having an anxiolytic or tranquillising activity suppress the conditioned avoidance response.
Training: day one: 11 trials at 3 minute intervals. Electric shock to the paws after 30 seconds (5 mA, 0.1 s, 10 s).
Days two and three: 2 trials per day, with the selected rats only [sum of the scores for the first day (with the exception of the first trial)>14].
Test day: groups formed by selected rats. Oral administration of the product or the vehicle 45 minutes before the start of the study.

For experiment [2], the system named is norepinephrine-induced death in rats. Put plainly: norepinephrine antagonism test in rats (antihypertensive activity). The experiment is classed as in vivo, rat (male Wister). The settings on record: for Activity % (norepinephrine antagonistic antihypertensive activity): D = 40 mg/kg, i.p., rat, norepinephrine 1.25 mg/kg i.v. after 2 hours; for ED50: Rattus norvegicus, ip, 2 h, read-out: ED50 (norepinephrine antagonistic antihypertensive activity). Here is the method: This activity is manifested by the protection of animals before death induced by an intravenous injection of norepinephrine, which produces a hypertensive attack in rats.
Male Wister rats weighing 200 grammes are used in this test. The product to be studied is administered intraperitoneally and 1.25 mg/kg (i.v.) of norepinephrine are administered after 2 hours.
The initial administration dose in these studies is 40 mg/kg (i.p.).

Experiment [3] relates to mice, abstinence syndrome induced by cocaine, diazepam, alcohol or nicotine. Put plainly: light box/dark box test: inhibition of the abstinence syndrome. The experiment is classed as in vivo, mouse. The arrangement: Time in box, dark (D) / Latent period L-D: unit not given here. Here is the method:
The light box/dark box test described by B. Costall et al. (J. Phar. Pharmacol., 1988, 40: 494-500) is used. The mouse is placed in the light zone of a box divided into two compartments, one brightly illuminated, the light box, and the other with little illumination, the dark box.
1) The number of times the mouse stands up on the hind paws in each compartment during a 5 minute period is counted (see Column 1 of Table V).
2) The activity in each compartment is given by counting the number of crossings through the squares which form the divisions of each compartment (see Column 2 of Table V).
3) The time passed in the dark box during the 5 minute counting period is determined (see Column 3 of Table 5).
4) The initial latent period is determined, that is to say the time which elapses after the animal is placed in the light box, at the start of the test, before it enters the dark box (see Column 4 of Table 5).
1) Dependency on a given treatment (diazepam, cocaine, alcohol or nicotine) employing daily administration over a period of 7 or 14 days.
Diazepam: 10 mg/kg i.p. twice per day over a period of 7 days.
Cocaine: 1 mg/kg i.p. over a period of 14 days.
Alcohol: Administered at 8% weight/volume in the drinking water over a period of 14 days. Nicotine: 0.1 mg/kg i.p. twice per day over a period of 7 days.
3) Other different groups receive, in addition to diazepam, cocaine, alcohol or nicotine, a concomitant treatment with products which are the subject of the present invention and, by way of comparison, with buspirone or ipsapirone.
The product described and the doses tested were: 4,5-dichloro-2-methyl-1-{4-[4-(2-pyrimidinyl)-1-piperazinyl]-butyl}-1H-imidazole citrate.
1 μg/kg p.o. twice per day.

The mark [4] stands for this setting: 24 h after stopping alcohol (alone, or with the named product; Ex. 42 at 1 μg/kg p.o. twice per day).
[5] abbreviates: 24 h after stopping cocaine (alone, or with the named product; Ex. 42 at 1 μg/kg p.o. twice per day).
Where [6] appears, read: 24 h after stopping diazepam (alone, or with the named product; Ex. 42 at 1 μg/kg p.o. twice per day).
[7] abbreviates: 24 h after stopping nicotine (alone, or with the named product; Ex. 42 at 1 μg/kg p.o. twice per day).
The mark [8] stands for this setting: during long-term treatment with the agent (doses as E20).
Setting [9] is: during long-term treatment with the agent (doses as E20), 5 minute counting period.
Where [10] appears, read: during long-term treatment with the agent (doses as E20), number of crossings.
[11] abbreviates: during long-term treatment: cocaine 1 mg/kg i.p. 14 days, diazepam 10 mg/kg i.p. twice per day 7 days, alcohol 8% w/v drinking water 14 days, nicotine 0.1 mg/kg i.p. twice per day 7 days.

For `c1ccc(-c2ncn(CCCCN3CCN(c4ncccn4)CC3)c2-c2ccccc2)cc1` [Example 8], in experiment [1], the “Activity % (inhibition of the conditioned avoidance response)” value is given as 29%. The “Activity % (norepinephrine antagonistic antihypertensive activity)” value in experiment [2] was determined as 0%.

As to `COc1ccccc1N1CCN(CCCCn2c(C)nc(Cl)c2Cl)CC1` [Example 30], the “Activity % (inhibition of the conditioned avoidance response)” value in experiment [1] is 95%. The molecule further gave a median effective dose (ED50) in experiment [1] (po, 0.75 h) of 12.8 mg/kg. Further, in experiment [2], the “Activity % (norepinephrine antagonistic antihypertensive activity)” value worked out at 100% and the ED50 turned out to be 0.18 mg/kg.

For the molecule `O=C1c2ccccc2S(=O)(=O)N1CCCCN1CCN(c2ncccn2)CC1` [Ipsapirone], in experiment [1], the “Activity % (inhibition of the conditioned avoidance response)” value is recorded as 98%. Also, in experiment [3] (setting [4]), the “Activity within 5 min period, dark box (D)” value amounted to 80; the “Activity within 5 min period, light box (L)” value is reported as 36; the “Latent period L-D” value was determined as 10; the “Number of times standing erect within 5 min. period, dark box (D)” value (shortened to “Number … (D)”) is on record as 75. Also, in experiment [3] (setting [4]), the “Number of times standing erect within 5 min. period, light box (L)” value (“Number … (L)” below) was determined as 21 and the “Time in box, dark (D)” value was determined as 35. Also, in experiment [3] (setting [5]), the “Activity within 5 min period, dark box (D)” value was 85; the “Activity within 5 min period, light box (L)” value is recorded as 18; the “Latent period L-D” value is on record as 8; the “Number … (D)” value came out at 89. Also, in experiment [3] (setting [5]), the “Number … (L)” value was determined as 11 and the “Time in box, dark (D)” value worked out at 62. In experiment [3] (setting [6]), the “Activity within 5 min period, dark box (D)” value was 88; the “Activity within 5 min period, light box (L)” value was found to be 17; the “Latent period L-D” value amounted to 8; the “Number … (D)” value is reported as 82. For the same molecule, in experiment [3] (setting [6]), the “Number … (L)” value stood at 15 and the “Time in box, dark (D)” value was found to be 90. In experiment [3] (setting [7]), the “Activity within 5 min period, dark box (D)” value is 98; the “Activity within 5 min period, light box (L)” value came out at 18; the “Latent period L-D” value is listed as 3; the “Number … (D)” value was 84. In experiment [3] (setting [7]), the “Number … (L)” value came out at 9 and the “Time in box, dark (D)” value was determined as 70. Further, the abstinence syndrome result in experiment [3] (induced by alcohol) was “inhibits the abstinence syndrome”. Further, in experiment [3] (induced by diazepam, cocaine and nicotine), the abstinence syndrome result is recorded as “maintains the abstinence syndrome”.

With `O=C1CC2(CCCC2)CC(=O)N1CCCCN1CCN(c2ncccn2)CC1` [Buspirone], the “Activity % (inhibition of the conditioned avoidance response)” value in experiment [1] worked out at 99%. Further, in experiment [3] (setting [4]), the “Activity within 5 min period, dark box (D)” value is 75; the “Activity within 5 min period, light box (L)” value is on record as 15; the “Latent period L-D” value was determined as 7; the “Number … (D)” value is recorded as 80. In addition, in experiment [3] (setting [4]), the “Number … (L)” value was found to be 18 and the “Time in box, dark (D)” value worked out at 62. Besides, in experiment [3] (setting [5]), the “Activity within 5 min period, dark box (D)” value was found to be 90; the “Activity within 5 min period, light box (L)” value is given as 18; the “Latent period L-D” value is given as 2; the “Number … (D)” value amounted to 98. Moreover, in experiment [3] (setting [5]), the “Number … (L)” value came out at 10 and the “Time in box, dark (D)” value came out at 70. Further, in experiment [3] (setting [6]), the “Activity within 5 min period, dark box (D)” value amounted to 100; the “Activity within 5 min period, light box (L)” value turned out to be 12; the “Latent period L-D” value came to 2; the “Number … (D)” value was 88. For the same molecule, in experiment [3] (setting [6]), the “Number … (L)” value was found to be 9 and the “Time in box, dark (D)” value is 72. In experiment [3] (setting [7]), the “Activity within 5 min period, dark box (D)” value was 85; the “Activity within 5 min period, light box (L)” value was 20; the “Latent period L-D” value is given as 8; the “Number … (D)” value is 80. Moreover, in experiment [3] (setting [7]), the “Number … (L)” value is 12 and the “Time in box, dark (D)” value is listed as 65. Besides, the abstinence syndrome entry in experiment [3] (induced by diazepam and cocaine) is given as “maintains the abstinence syndrome”. For the same molecule, the abstinence syndrome result in experiment [3] (treatment with alcohol and nicotine stopped) was “an abstinence syndrome, i.e. anxiogenesis, no longer exists”. Moreover, in experiment [3] (treatment with alcohol stopped), the “inhibition of anxiogenic response parameters” value is listed as “significantly inhibits only a few anxiogenic response parameters”.

As for `CN1CCC[C@H]1c1cccnc1` [Nicotine], in experiment [3] (mouse, in vivo), the “Activity within 5 min period, dark box (D)” value turned out to be 25; the “Activity within 5 min period, light box (L)” value is reported as 70; the “Latent period L-D” value stood at 26; the “Number … (D)” value worked out at 23. Moreover, in experiment [3] (mouse, in vivo), the “Number … (L)” value was found to be 66 and the “Time in box, dark (D)” value was found to be 25. In experiment [3] (mouse, in vivo, po), the “Activity within 5 min period, dark box (D)” value turned out to be 147; the “Activity within 5 min period, light box (L)” value is 14; the “Latent period L-D” value was 2; the “Number … (D)” value turned out to be 125. Moreover, in experiment [3] (mouse, in vivo, po), the “Number … (L)” value was 10 and the “Time in box, dark (D)” value worked out at 78.

Turning to `c1ccc(CC2=NCCN2)cc1` [Tolazoline, reference compound], in experiment [2], the “Activity % (norepinephrine antagonistic antihypertensive activity)” value amounted to 100% and the median effective dose (ED50) was found to be 2.97 mg/kg.

For `Clc1cccc(Cl)c1N=C1NCCN1` [Clonidine, reference compound], in experiment [2], the “Activity % (norepinephrine antagonistic antihypertensive activity)” value came out at 100% and the ED50 was 1.58 mg/kg.

Consider `CCO` [Alcohol], for which the “Activity within 5 min period, dark box (D)” value in experiment [3] (setting [4]) turned out to be 167; in experiment [3] (setting [10]), 28. For the same molecule, the “Activity within 5 min period, light box (L)” value worked out at 6 in experiment [3] (setting [4]) and 80 in experiment [3] (setting [10]). The “Latent period L-D” value in experiment [3] (setting [4]) stood at 2; in experiment [3] (setting [8]), 28. In addition, the “Time in box, dark (D)” value in experiment [3] (setting [4]) is 84; in experiment [3] (setting [9]), 28. The “Number … (D)” value is on record as 22 in experiment [3] (mouse, in vivo) and 147 in experiment [3] (mouse, in vivo, po). In addition, the “Number … (L)” value is on record as 72 in experiment [3] (mouse, in vivo) and 5 in experiment [3] (mouse, in vivo, po).

`COC(=O)[C@H]1[C@@H](OC(=O)c2ccccc2)C[C@@H]2CC[C@H]1N2C` [Cocaine]: in experiment [3] (setting [5]), the “Activity within 5 min period, dark box (D)” value is listed as 149; the “Activity within 5 min period, light box (L)” value is 10; the “Latent period L-D” value is reported as 2; the “Number … (D)” value is listed as 122. Further, in experiment [3] (setting [5]), the “Number … (L)” value was 7 and the “Time in box, dark (D)” value is 83. For the same molecule, in experiment [3] (setting [8]), the “Latent period L-D” value is 18 and the “Number … (D)” value came to 38. In addition, the “Time in box, dark (D)” value in experiment [3] (setting [9]) is 30. Also, in experiment [3] (setting [10]), the “Activity within 5 min period, dark box (D)” value is listed as 30 and the “Activity within 5 min period, light box (L)” value is listed as 68. In addition, the “Number … (L)” value in experiment [3] (setting [11]) is recorded as 60.

As to `CN1C(=O)CN=C(c2ccccc2)c2cc(Cl)ccc21` [Diazepam], in experiment [3] (setting [6]), the “Activity within 5 min period, dark box (D)” value turned out to be 164; the “Activity within 5 min period, light box (L)” value is 5; the “Latent period L-D” value was found to be 1.8; the “Number … (D)” value worked out at 146. Moreover, in experiment [3] (setting [6]), the “Number … (L)” value is 5 and the “Time in box, dark (D)” value turned out to be 80. In experiment [3] (setting [8]), the “Latent period L-D” value stood at 27 and the “Number … (D)” value was 25. Moreover, the “Time in box, dark (D)” value in experiment [3] (setting [9]) was 25. In experiment [3] (setting [10]), the “Activity within 5 min period, dark box (D)” value is given as 24 and the “Activity within 5 min period, light box (L)” value came out at 73. Also, the “Number … (L)” value in experiment [3] (setting [11]) is recorded as 70.
